Laboratory results taken from ChEMBL document CHEMBL4138121, “Selective photocytotoxicity of anthrols on cancer stem-like cells: The effect of quinone methides or reactive oxygen species” (Eur J Med Chem, 2017).
Calls of active or inactive are those of the source. No cut-off for these calls is given here.

Columns and labels:
HCT-116 [1] = test: Photocytotoxicity against human HCT116 cells assessed as growth inhibition irradiated at 350 nm at 4, 24, 48 hrs post compound addition for 5 mins measured after 72 hrs by MTT assay; assay type: functional, cell-based; conditions: HCT-116, light or radiation study
[2] = Dark toxicity against human HCT116 cells after 72 hrs by MTT assay; assay type: cell-based, HCT-116
HCT-116 [3] = test: Photocytotoxicity against human HCT116 cells assessed as growth inhibition irradiated at 420 nm at 4, 24, 48 hrs post compound addition for 5 mins measured after 72 hrs by MTT assay; assay type: functional, cell-based; conditions: HCT-116, light or radiation study
[4] = Dark toxicity against human H460 cells after 72 hrs by MTT assay; assay type: cell-based, NCI-H460
NCI-H460 [5] = test: Photocytotoxicity against human H460 cells assessed as growth inhibition irradiated at 350 nm at 4, 24, 48 hrs post compound addition for 5 mins measured after 72 hrs by MTT assay; assay type: functional, cell-based; conditions: NCI-H460, light or radiation study
NCI-H460 [6] = test: Photocytotoxicity against human H460 cells assessed as growth inhibition irradiated at 420 nm at 4, 24, 48 hrs post compound addition for 5 mins measured after 72 hrs by MTT assay; assay type: functional, cell-based; conditions: NCI-H460, light or radiation study
[7] = Dark toxicity against human MCF7 cells after 72 hrs by MTT assay; assay type: cell-based
MCF7 [8] = test: Photocytotoxicity against human MCF7 cells assessed as growth inhibition irradiated at 350 nm at 4, 24, 48 hrs post compound addition for 5 mins measured after 72 hrs by MTT assay; assay type: functional, cell-based; conditions: MCF7, light or radiation study
MCF7 [9] = test: Photocytotoxicity against human MCF7 cells assessed as growth inhibition irradiated at 420 nm at 4, 24, 48 hrs post compound addition for 5 mins measured after 72 hrs by MTT assay; assay type: functional, cell-based; conditions: MCF7, light or radiation study
[10] = Dark toxicity against human SUM159 cells after 72 hrs by MTT assay; assay type: cell-based, SUM-159-PT
SUM-159-PT [11] = test: Photocytotoxicity against human SUM159 cells assessed as growth inhibition irradiated at 420 nm at 4, 24, 48 hrs post compound addition for 5 mins measured after 72 hrs by MTT assay; assay type: functional, cell-based; conditions: light or radiation study
[12] = Dark toxicity against HMLE-shGFP cells after 72 hrs by MTT assay; assay type: cell-based; conditions: human
[13] = Photocytotoxicity against HMLE-shGFP cells assessed as growth inhibition irradiated at 350 nm at 4, 24, 48 hrs post compound addition for 5 mins measured after 72 hrs by MTT assay; assay type: cell-based; conditions: Homo sapiens, light or radiation study
[14] = Photocytotoxicity against HMLE-shGFP cells assessed as growth inhibition irradiated at 420 nm at 4, 24, 48 hrs post compound addition for 5 mins measured after 72 hrs by MTT assay; assay type: cell-based; conditions: Homo sapiens, light or radiation study
[15] = Dark toxicity against HMLE-shEcad cells after 72 hrs by MTT assay; assay type: cell-based; conditions: human
[16] = Photocytotoxicity against HMLE-shEcad cells assessed as growth inhibition irradiated at 350 nm at 4, 24, 48 hrs post compound addition for 5 mins measured after 72 hrs by MTT assay; assay type: functional, cell-based; conditions: Homo sapiens, light or radiation study
[17] = Photocytotoxicity against HMLE-shEcad cells assessed as growth inhibition irradiated at 420 nm at 4, 24, 48 hrs post compound addition for 5 mins measured after 72 hrs by MTT assay; assay type: functional, cell-based; conditions: Homo sapiens, light or radiation study
HMLE [18] = test: Anticlonogenic activity against HMLE-shEcad cells at 1 uM irradiated at 350 nm at 4 hrs post compound addition for 5 mins measured after 24 hrs by crystal violet staining-based assay; assay type: functional, cell-based; conditions: Homo sapiens
[19] = Anticlonogenic activity against HMLE-shGFP cells at 1 uM irradiated at 350 nm at 4 hrs post compound addition for 5 mins measured after 24 hrs by crystal violet staining-based assay; assay type: cell-based; conditions: human
[20] = Cell cycle arrest in HMLE-shEcad cells at 1 to 5 uM after 24 to 48 hrs in absence of irradiation by propidium iodide staining-based flow cytometric method; conditions: human
[21] = Cell cycle arrest in HMLE-shGFP cells assessed as delay in G1 phase at 5 uM after 24 to 48 hrs in absence of irradiation by propidium iodide staining-based flow cytometric method; conditions: human
HMLE [22] = test: Cell cycle arrest in HMLE-shEcad cells assessed as delay in S/G2 phase at 5 uM irradiated at 420 nm at 4 hrs post compound addition for 5 mins measured after 24 to 48 hrs by propidium iodide staining-based flow cytometric method; assay type: functional; conditions: Homo sapiens
[23] = Cell cycle arrest in HMLE-shGFP cells assessed as delay in S/G2 phase at 5 uM irradiated at 420 nm at 4 hrs post compound addition for 5 mins measured after 24 to 48 hrs by propidium iodide staining-based flow cytometric method; conditions: human
[24] = Cytotoxicity against HMLE-shGFP cells at 10 uM irradiated at 420 nm at 4 hrs post compound addition for 5 mins measured after 48 hrs by propidium iodide staining-based flow cytometric method; assay type: cell-based; conditions: human
HMLE [25] = test: Cytotoxicity against HMLE-shEcad cells at 10 uM irradiated at 420 nm at 4 hrs post compound addition for 5 mins measured after 48 hrs by propidium iodide staining-based flow cytometric method; assay type: functional, cell-based; conditions: Homo sapiens
MCF7 [26] = test: Cell cycle arrest in human MCF7 cells in presence of irradiation; assay type: functional, cell-based
SUM-159-PT [27] = test: Cell cycle arrest in human SUM159 cells in presence of irradiation; assay type: functional, cell-based
[28] = Drug uptake in cytoplasm of HMLE-shEcad cells at 5 uM in absence of irradiation measured after 2 to 3 hrs by confocal microscopic method; assay type: ADME, subcellular; conditions: human
[29] = Drug uptake in nucleus of HMLE-shEcad cells at 5 uM in absence of irradiation measured after 2 to 3 hrs by confocal microscopic method; assay type: ADME, subcellular; conditions: human
[30] = Drug uptake in cytoplasm of HMLE-shGFP cells at 5 uM irradiated at 420 nm for 5 mins measured after 2 to 3 hrs by confocal microscopic method; assay type: ADME, subcellular; conditions: human
[31] = Drug uptake in nucleus of HMLE-shGFP cells at 5 uM irradiated at 420 nm for 5 mins measured after 2 to 3 hrs by confocal microscopic method; assay type: ADME, subcellular; conditions: human
[32] = Drug uptake in plasma membranes of HMLE-shGFP cells at 5 uM irradiated at 420 nm for 5 mins measured after 2 to 3 hrs by confocal microscopic method; assay type: ADME, cell membranes, Plasma membrane; conditions: human
[33] = Drug uptake in intracellular membranes of HMLE-shGFP cells at 5 uM irradiated at 420 nm for 5 mins measured after 2 to 3 hrs by confocal microscopic method; assay type: ADME, cell membranes, Intracellular membrane; conditions: human
[34] = Induction of cell damage in HMLE-shGFP cells assessed as uncoupling of cytoskeleton from plasma membrane at 5 uM irradiated at 420 nm for 5 mins measured after 2 to 3 hrs by confocal microscopic method; assay type: cell-based; conditions: human
[35] = Induction of cell damage in HMLE-shGFP cells assessed as cell swelling at 5 uM irradiated at 420 nm for 5 mins measured after 2 to 3 hrs by confocal microscopic method; assay type: cell-based; conditions: human
[36] = Induction of cell damage in HMLE-shGFP cells assessed as degradation of internal structure at 5 uM irradiated at 420 nm for 5 mins measured after 2 to 3 hrs by confocal microscopic method; assay type: cell-based; conditions: human
HMLE [37] = test: Anticlonogenic activity against HMLE-shEcad cells at 0.5 to 1 uM irradiated at 350 nm at 4 hrs post compound addition for 5 mins for 5 mins measured after 24 hrs by crystal violet staining-based assay; assay type: functional, cell-based; conditions: Homo sapiens
[38] = Cell cycle arrest in HMLE-shEcad cells assessed as delay in G1/S phase at 1 to 10 uM after 24 to 48 hrs in absence of irradiation by propidium iodide staining-based flow cytometric method; conditions: human
HMLE [39] = test: Cell cycle arrest in HMLE-shEcad cells assessed as accumulation at S phase at 1 to 10 uM irradiated at 420 nm at 4 hrs post compound addition for 5 mins measured after 24 to 48 hrs by propidium iodide staining-based flow cytometric method; assay type: functional; conditions: Homo sapiens
HMLE [40] = test: Cell cycle arrest in HMLE-shEcad cells assessed as accumulation at G2/M phase at 1 to 10 uM irradiated at 420 nm at 4 hrs post compound addition for 5 mins measured after 24 to 48 hrs by propidium iodide staining-based flow cytometric method; assay type: functional; conditions: Homo sapiens
[41] = Cell cycle arrest in HMLE-shGFP cells assessed as accumulation at S phase at 1 to 10 uM irradiated at 420 nm at 4 hrs post compound addition for 5 mins measured after 24 to 48 hrs by propidium iodide staining-based flow cytometric method; conditions: human
[42] = Cell cycle arrest in HMLE-shGFP cells assessed as accumulation at G2/M phase at 1 to 10 uM irradiated at 420 nm at 4 hrs post compound addition for 5 mins measured after 24 to 48 hrs by propidium iodide staining-based flow cytometric method; conditions: human
SUM-159-PT [43] = test: Induction of reactive oxygen species generation in human SUM159 cells at 1 to 10 uM irradiated at 420 nm for 5 mins measured after 2 hrs by H2DCF-DA dye-based FACS analysis; assay type: functional, cell-based
MCF7 [44] = test: Induction of reactive oxygen species generation in human MCF7 cells at 1 to 10 uM irradiated at 420 nm for 5 mins measured after 2 hrs by H2DCF-DA dye-based FACS analysis; assay type: functional, cell-based
[45] = Induction of reactive oxygen species generation in HMLE-shGFP cells at 1 to 10 uM irradiated at 420 nm for 5 mins measured after 2 hrs by H2DCF-DA dye-based FACS analysis relative to non-irradiated cells; assay type: cell-based; conditions: human
[46] = Decrease in reactive oxygen species generation in HMLE-shEcad cells at 1 uM in absence of irradiation measured after 2 hrs by H2DCF-DA dye-based FACS analysis; assay type: ADME, cell-based; conditions: human
[47] = Drug uptake in cytoplasm of HMLE-shEcad cells at 10 uM in absence of irradiation measured after 2 to 3 hrs by confocal microscopic method; assay type: ADME, subcellular; conditions: human
[48] = Drug uptake in nucleus of HMLE-shEcad cells at 10 uM in absence of irradiation measured after 2 to 3 hrs by confocal microscopic method; assay type: ADME, subcellular; conditions: human
[49] = Induction of cell damage in HMLE-shGFP cells assessed as membrane blebbing at 5 uM irradiated at 420 nm for 5 mins measured after 2 to 3 hrs by confocal microscopic method; assay type: cell-based; conditions: human

Row | Compound | IC50 (HCT-116 [1]) | IC50 at 72 h [2] | IC50 (HCT-116 [3]) | IC50 at 72 h [4] | IC50 (NCI-H460 [5]) | IC50 (NCI-H460 [6]) | IC50 at 72 h [7] | IC50 (MCF7 [8]) | IC50 (MCF7 [9]) | IC50 at 72 h [10] | IC50 (SUM-159-PT [11]) | IC50 at 72 h [12] | IC50 [13] | IC50 [14] | IC50 at 72 h [15] | IC50 [16] | IC50 [17] | Activity [24] | Activity (HMLE [25]) | Activity (MCF7 [26]) | other results
1 | Oc1cc2cc3ccccc3cc2cc1C(O)(c1ccccc1)c1ccccc1 | 2 µM | 21 µM | 2 µM | 19 µM | 3 µM | 2 µM | 20 µM | 4 µM | 2 µM | 4 µM | 1 µM | 6 µM | 1 µM | 2 µM | 2 µM | 2 µM | 2 µM | Toxic | Active | inactive | Activity (HMLE [18]): Active; Activity [19]: Toxic; Activity [20]: Non-Toxic; Activity [21]: Toxic; Activity (HMLE [22]): Active; Activity [23]: Toxic; Activity (SUM-159-PT [27]): inactive; Drug uptake [28]: Active; Drug uptake [29]: Not Active; Drug uptake [30]: Active; Drug uptake [31]: Not Active; Drug uptake [32]: Active; Drug uptake [33]: Active; Activity [34]: Toxic; Activity [35]: Toxic; Activity [36]: Toxic
2 | Oc1ccc2cc3ccccc3cc2c1 | 9 µM | 27 µM | 2 µM | 23 µM | 12 µM | 2 µM | 28 µM | 2 µM | 1 µM | 18 µM | 2 µM | 27 µM | 2 µM | 2 µM | 25 µM | 2 µM | 1 µM | Toxic | Active | inactive | Activity (HMLE [37]): Active; Activity [38]: Toxic; Activity (HMLE [39]): Active; Activity (HMLE [40]): Active; Activity [41]: Toxic; Activity [42]: Toxic; Activity (SUM-159-PT [27]): inactive; Activity (SUM-159-PT [43]): Active; Activity (MCF7 [44]): Active; fold change (FC) [45]: 2; Activity [46]: Toxic; Drug uptake [30]: Active; Drug uptake [31]: Not Active; Drug uptake [47]: Active; Drug uptake [48]: Not Active; Drug uptake [32]: Active; Drug uptake [33]: Active; Activity [35]: Toxic; Activity [36]: Toxic; Activity [49]: Toxic
